≈ marks a conversion by molar mass, not a printed value. Like-named read-outs stand apart in the source and are kept apart here.
Experiments:
ABL [1] = target: T1, ABL (Homo sapiens, UniProt P00519); assay: Off-chip mobility-shift kinase assay (Caliper LABCHIP), ABL; details: for ABL AVG % Activity at 1.0E−09: concentration 1.0E−09; for ABL AVG % Activity at 1.0E−10: concentration 1.0E−10; for ABL AVG % Activity at 1.0E−11: concentration 1.0E−11; for ABL AVG % Activity at 3.0E−09: concentration 3.0E−09; for ABL AVG % Activity at 3.0E−10: concentration 3.0E−10; for ABL AVG % Activity at 3.0E−11: concentration 3.0E−11
T1 sequence (P00519 whole entry): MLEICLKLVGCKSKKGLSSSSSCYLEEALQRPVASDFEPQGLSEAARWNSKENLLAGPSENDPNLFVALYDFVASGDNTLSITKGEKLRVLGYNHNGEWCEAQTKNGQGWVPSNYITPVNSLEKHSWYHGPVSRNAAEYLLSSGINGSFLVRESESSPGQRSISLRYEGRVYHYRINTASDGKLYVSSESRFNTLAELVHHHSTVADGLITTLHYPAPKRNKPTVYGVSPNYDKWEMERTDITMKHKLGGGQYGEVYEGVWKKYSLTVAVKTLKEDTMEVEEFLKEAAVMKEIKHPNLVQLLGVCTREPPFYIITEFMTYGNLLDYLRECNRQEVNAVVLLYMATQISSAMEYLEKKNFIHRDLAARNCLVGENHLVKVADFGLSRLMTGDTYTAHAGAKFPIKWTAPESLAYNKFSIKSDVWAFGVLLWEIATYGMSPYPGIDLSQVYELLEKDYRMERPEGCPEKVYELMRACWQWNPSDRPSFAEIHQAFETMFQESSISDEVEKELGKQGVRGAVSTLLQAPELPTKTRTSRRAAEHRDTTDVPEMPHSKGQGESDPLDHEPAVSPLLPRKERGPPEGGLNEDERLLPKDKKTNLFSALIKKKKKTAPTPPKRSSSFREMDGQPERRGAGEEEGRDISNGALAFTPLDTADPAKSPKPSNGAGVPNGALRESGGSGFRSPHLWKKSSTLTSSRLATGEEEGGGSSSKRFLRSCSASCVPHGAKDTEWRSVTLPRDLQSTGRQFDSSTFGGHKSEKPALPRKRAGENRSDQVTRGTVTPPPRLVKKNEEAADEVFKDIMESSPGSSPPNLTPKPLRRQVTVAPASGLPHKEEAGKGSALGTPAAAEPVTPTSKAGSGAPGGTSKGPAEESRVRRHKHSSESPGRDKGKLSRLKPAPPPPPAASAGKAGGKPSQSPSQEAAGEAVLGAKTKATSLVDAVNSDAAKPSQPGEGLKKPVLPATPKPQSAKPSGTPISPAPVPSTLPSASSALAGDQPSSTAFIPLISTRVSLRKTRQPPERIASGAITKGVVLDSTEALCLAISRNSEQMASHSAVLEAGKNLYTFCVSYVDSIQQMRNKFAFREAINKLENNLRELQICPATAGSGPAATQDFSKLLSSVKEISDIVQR

[2] = Caco-2 permeability (bi-directional; pH 7.4/pH 7.4); assay type: in vitro ADME; details: human
Procedure: Caco-2 cells are used as an in vitro model of the human intestinal epithelium and permit assessment of the intestinal permeability of potential drugs. Test compound is added to either the apical or basolateral side of a confluent monolayer of Caco-2 cells and permeability is measured by monitoring the appearance of the test compound on the opposite side of the membrane using LC-MS/MS. Apparent permeability (Papp) coefficients, efflux ratio for the test compound and recovery values were determined.
To measure the permeability of test compound in the apical to basolateral (A-B) and basolateral to apical (B-A) direction across Caco-2 cells.
Caco-2 cells obtained from the ATCC are used between passage numbers 40-60. Cells are seeded on to Millipore Multiscreen Caco-2 plates at 1×10^5 cells/cm^2. They are cultured for 20 days in DMEM and media is changed every two or three days. On day 20 the permeability study is performed.
On day 20, the monolayers are prepared by rinsing both basolateral and apical surfaces twice with HBSS at 37° C. Cells are then incubated with HBSS in both apical and basolateral compartments for 40 min to stabilize physiological parameters. HBSS is then removed from the apical compartment and replaced with test compound dosing solutions. […] The fluorescent integrity marker lucifer yellow is also included in the dosing solution. Analytical standards are made from dosing solutions. The apical compartment inserts are then placed into ‘companion’ plates containing fresh HBSS. For basolateral to apical (B-A) permeability determination the experiment is initiated by replacing buffer in the inserts then placing them in companion plates containing dosing solutions. At 120 minutes the companion plate is removed and apical and basolateral samples diluted for analysis by LC-MS/MS. Test compound permeability was assessed in duplicate. On each plate, compounds of known permeability characteristics were run as controls.
Test and control compounds were quantified by LC-MS/MS cassette analysis using a 5-point calibration with appropriate dilution of the samples. Cyprotex generic analytical conditions were used. The starting concentration (C0) and experimental recovery were calculated from both apical and basolateral compartment concentrations.
The integrity of the monolayers throughout the experiment was checked by monitoring lucifer yellow permeation using fluorimetric analysis. Lucifer yellow permeation is low if monolayers have not been damaged. […] If lucifer yellow Papp values are above QC limits in both replicate wells for a test compound, the compound was re-tested.
Data Analysis: The permeability coefficient for each compound (Papp) is calculated from the following equation: […]
wherein dQ/dt is the rate of permeation of the drug across the cells, C0 is the donor compartment concentration at time zero and A is the area of the cell monolayer. C0 is obtained from analysis of donor and receiver compartments at the end of the incubation period. It is assumed that all of the test compound measured after 120 minutes incubation was initially present in the donor compartment at 0 minutes. An efflux ratio (ER) is derived as follows:
Talinolol (a known P-gp substrate) is also included as a control compound to assess whether functional P-gp is present in the Caco-2 cell monolayer.

cKIT = cKIT (Homo sapiens, UniProt P10721); assay: Off-chip mobility-shift kinase assay (Caliper LABCHIP), C-kit
Chain of cKIT (P10721 26-976): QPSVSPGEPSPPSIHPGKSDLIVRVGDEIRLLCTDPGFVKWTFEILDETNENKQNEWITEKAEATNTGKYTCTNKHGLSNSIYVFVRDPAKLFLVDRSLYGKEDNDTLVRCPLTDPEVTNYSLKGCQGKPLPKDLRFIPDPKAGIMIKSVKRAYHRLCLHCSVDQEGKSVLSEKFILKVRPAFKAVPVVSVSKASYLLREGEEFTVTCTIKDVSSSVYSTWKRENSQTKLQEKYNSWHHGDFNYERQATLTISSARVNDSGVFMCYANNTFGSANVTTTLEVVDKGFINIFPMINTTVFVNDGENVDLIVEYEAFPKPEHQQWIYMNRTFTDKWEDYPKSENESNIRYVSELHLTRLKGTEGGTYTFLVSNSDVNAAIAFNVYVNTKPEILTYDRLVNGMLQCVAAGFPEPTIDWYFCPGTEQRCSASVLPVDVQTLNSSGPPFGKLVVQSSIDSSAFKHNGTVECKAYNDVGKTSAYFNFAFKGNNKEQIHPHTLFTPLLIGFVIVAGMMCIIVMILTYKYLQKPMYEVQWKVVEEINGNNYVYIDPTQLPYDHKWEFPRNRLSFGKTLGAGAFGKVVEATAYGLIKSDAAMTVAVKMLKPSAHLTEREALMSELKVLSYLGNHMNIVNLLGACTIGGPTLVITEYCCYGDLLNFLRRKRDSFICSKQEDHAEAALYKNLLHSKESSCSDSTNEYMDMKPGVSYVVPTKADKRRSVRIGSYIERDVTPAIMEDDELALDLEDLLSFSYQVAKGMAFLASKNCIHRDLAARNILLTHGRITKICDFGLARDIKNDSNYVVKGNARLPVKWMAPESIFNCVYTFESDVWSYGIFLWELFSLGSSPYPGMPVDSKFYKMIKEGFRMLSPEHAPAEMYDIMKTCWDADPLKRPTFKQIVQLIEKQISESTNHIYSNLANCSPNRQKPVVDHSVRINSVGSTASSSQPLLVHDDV

Thermodynamic solubility = assay type: physicochemical; details: aqueous buffer, thermodynamic from solid; phosphate buffered saline, pH 7.4; ambient temperature overnight
Procedure: Test compound (2.5 mg of solid; n=1) is weighed in a clear glass vial and buffer (0.5 mL) is added (phosphate buffered saline, pH 7.4). The solution is agitated at ambient temperature overnight using a vial roller system. […] Duplicate aliquots (50 μL) are sampled from the filtrate and diluted with one volume of 0.1 N hydrochloric acid and methanol (1:1 v/v) before analysis by HPLC-UV. […] The concentration of test compound in the filtrate is quantified relative to the concentration standard.
Analysis is performed using a gradient HPLC-UV system with a total cycle time of six minutes.

PDGFRβ = PDGFRβ (Homo sapiens, UniProt P09619); assay: Off-chip mobility-shift kinase assay (Caliper LABCHIP), PDGFR
Chain of PDGFRβ (P09619 33-1106): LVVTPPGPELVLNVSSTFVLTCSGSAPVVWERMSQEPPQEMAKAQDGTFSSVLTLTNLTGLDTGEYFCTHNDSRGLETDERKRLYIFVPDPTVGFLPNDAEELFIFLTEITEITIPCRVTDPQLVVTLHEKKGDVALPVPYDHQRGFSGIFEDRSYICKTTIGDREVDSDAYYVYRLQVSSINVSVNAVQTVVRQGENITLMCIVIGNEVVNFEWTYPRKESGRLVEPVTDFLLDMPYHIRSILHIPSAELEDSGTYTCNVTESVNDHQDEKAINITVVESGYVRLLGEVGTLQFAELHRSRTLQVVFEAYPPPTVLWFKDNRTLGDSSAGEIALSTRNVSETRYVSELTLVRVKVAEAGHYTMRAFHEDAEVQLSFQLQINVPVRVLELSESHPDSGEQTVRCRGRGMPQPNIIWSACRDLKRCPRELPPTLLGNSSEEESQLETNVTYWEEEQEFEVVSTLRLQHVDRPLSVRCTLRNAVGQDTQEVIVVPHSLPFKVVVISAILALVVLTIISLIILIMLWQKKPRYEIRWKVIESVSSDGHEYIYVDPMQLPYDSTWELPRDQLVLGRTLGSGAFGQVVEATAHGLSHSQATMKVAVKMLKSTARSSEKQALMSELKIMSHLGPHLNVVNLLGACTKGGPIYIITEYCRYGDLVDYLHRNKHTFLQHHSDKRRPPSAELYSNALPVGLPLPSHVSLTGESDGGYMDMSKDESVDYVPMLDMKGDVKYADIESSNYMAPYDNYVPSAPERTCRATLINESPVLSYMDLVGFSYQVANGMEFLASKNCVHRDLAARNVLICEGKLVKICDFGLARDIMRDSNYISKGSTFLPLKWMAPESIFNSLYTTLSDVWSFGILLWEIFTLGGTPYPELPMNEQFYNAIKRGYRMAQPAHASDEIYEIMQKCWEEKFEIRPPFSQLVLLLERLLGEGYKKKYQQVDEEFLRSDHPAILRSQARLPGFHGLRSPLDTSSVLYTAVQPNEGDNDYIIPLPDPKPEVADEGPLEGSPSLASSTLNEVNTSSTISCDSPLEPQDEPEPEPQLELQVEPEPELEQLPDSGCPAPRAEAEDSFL

ABL [3] = target: T1, ABL
[4] = dasatinib-corresponding compounds
[5] = imatinib-corresponding compounds

COCCOCCOCCOCC(=O)NC(C(=O)OCCN1CCN(c2cc(Nc3ncc(C(=O)Nc4c(C)cccc4Cl)s3)nc(C)n2)CC1)C(C)C (stereo not drawn) [mPEG3-Val-Dasatinib]
IC50 (ABL [1]): 0.37 nM | ABL AVG % Activity at 1.0E−09 (ABL [1]; [4]): 10% | ABL AVG % Activity at 1.0E−10 (ABL [1]; [4]): 85% | ABL AVG % Activity at 1.0E−11 (ABL [1]; [4]): 98% | ABL AVG % Activity at 3.0E−09 (ABL [1]; [4]): 0% | ABL AVG % Activity at 3.0E−10 (ABL [1]; [4]): 54% | ABL AVG % Activity at 3.0E−11 (ABL [1]; [4]): 95%

COCCOCCOCCOCCOCCOCCOCCNCc1ccc(C(=O)Nc2ccc(C)c(Nc3nccc(-c4cccnc4)n3)c2)cc1
IC50 (ABL [1]): ≥ 3000 nM | ABL AVG % Activity at 1.0E−06 (ABL [1]; concentration 1.0E−06, imatinib-corresponding compounds): 73% | ABL AVG % Activity at 1.0E−07 (ABL [1]; concentration 1.0E−07, imatinib-corresponding compounds): 90% | ABL AVG % Activity at 1.0E−08 (ABL [1]; concentration 1.0E−08, imatinib-corresponding compounds): 94% | ABL AVG % Activity at 1.0E−09 (ABL [1]; [5]): 97% | ABL AVG % Activity at 1.0E−10 (ABL [1]; [5]): 97% | ABL AVG % Activity at 3.0E−06 (ABL [1]; concentration 3.0E−06, imatinib-corresponding compounds): 59% | ABL AVG % Activity at 3.0E−07 (ABL [1]; concentration 3.0E−07, imatinib-corresponding compounds): 82% | ABL AVG % Activity at 3.0E−08 (ABL [1]; concentration 3.0E−08, imatinib-corresponding compounds): 94% | ABL AVG % Activity at 3.0E−09 (ABL [1]; [5]): 96% | ABL AVG % Activity at 3.0E−10 (ABL [1]; [5]): 97% | Papp A→B at 120 min, 10 μM ([2]; Caco-2, pH 7.4, read-out: Permeability (cm^2/s × 10^6)): 0.04 ± 0.01 ×10⁻⁶ cm/s | efflux ratio at 120 min, 10 μM ([2]; Caco-2, ratio of B-A and A-B permeabilities, 10 μM, 120 minutes): 391 | IC50 (cKIT): 1000 nM | C-kit AVG % Activity at 1.0E−05 (cKIT; concentration 1.0E−05): 6% | C-kit AVG % Activity at 1.0E−06 (cKIT; concentration 1.0E−06): 50% | C-kit AVG % Activity at 1.0E−07 (cKIT; concentration 1.0E−07): 88% | C-kit AVG % Activity at 1.0E−08 (cKIT; concentration 1.0E−08): 100% | C-kit AVG % Activity at 3.0E−05 (cKIT; concentration 3.0E−05): 1% | C-kit AVG % Activity at 3.0E−06 (cKIT; concentration 3.0E−06): 23% | C-kit AVG % Activity at 3.0E−07 (cKIT; concentration 3.0E−07): 76% | C-kit AVG % Activity at 3.0E−08 (cKIT; concentration 3.0E−08): 95% | C-kit AVG % Activity at 3.0E−09 (cKIT; concentration 3.0E−09): 99% | solubility (Thermodynamic solubility): 3600 µg/mL (≈ 4.91 mM) | IC50 (PDGFRβ): 230 nM | PDGFR AVG % Activity at 1.0E−06 (PDGFRβ; concentration 1.0E−06): 13% | PDGFR AVG % Activity at 1.0E−07 (PDGFRβ; concentration 1.0E−07): 67% | PDGFR AVG % Activity at 1.0E−08 (PDGFRβ; concentration 1.0E−08): 96% | PDGFR AVG % Activity at 1.0E−09 (PDGFRβ; concentration 1.0E−09): 93% | PDGFR AVG % Activity at 1.0E−10 (PDGFRβ; concentration 1.0E−10): 97% | PDGFR AVG % Activity at 3.0E−06 (PDGFRβ; concentration 3.0E−06): 0% | PDGFR AVG % Activity at 3.0E−07 (PDGFRβ; concentration 3.0E−07): 39% | PDGFR AVG % Activity at 3.0E−08 (PDGFRβ; concentration 3.0E−08): 100% | PDGFR AVG % Activity at 3.0E−09 (PDGFRβ; concentration 3.0E−09): 99% | PDGFR AVG % Activity at 3.0E−10 (PDGFRβ; concentration 3.0E−10): 93%

COCCOCCOCCOCCOCCOCCOCCOCCOCCNC(=O)OCCN1CCN(c2cc(Nc3ncc(C(=O)Nc4c(C)cccc4Cl)s3)nc(C)n2)CC1 [mPEG9-NHCOO-Dasatinib]
IC50 (ABL [1]): 0.31 nM | ABL AVG % Activity at 1.0E−09 (ABL [1]; [4]): 4% | ABL AVG % Activity at 1.0E−10 (ABL [1]; [4]): 80% | ABL AVG % Activity at 1.0E−11 (ABL [1]; [4]): 97% | ABL AVG % Activity at 3.0E−09 (ABL [1]; [4]): −1% | ABL AVG % Activity at 3.0E−10 (ABL [1]; [4]): 47% | ABL AVG % Activity at 3.0E−11 (ABL [1]; [4]): 92%

COCCOCCOCCOCCOCCNC(=O)OCCN1CCN(c2cc(Nc3ncc(C(=O)Nc4c(C)cccc4Cl)s3)nc(C)n2)CC1 [mPEG5-NHCOO-Dasatinib]
IC50 (ABL [1]): 0.3 nM | ABL AVG % Activity at 1.0E−09 (ABL [1]; [4]): 4% | ABL AVG % Activity at 1.0E−10 (ABL [1]; [4]): 80% | ABL AVG % Activity at 1.0E−11 (ABL [1]; [4]): 97% | ABL AVG % Activity at 3.0E−09 (ABL [1]; [4]): −1% | ABL AVG % Activity at 3.0E−10 (ABL [1]; [4]): 45% | ABL AVG % Activity at 3.0E−11 (ABL [1]; [4]): 94%

COCCOCCOCCOCC(=O)OCCN1CCN(c2cc(Nc3ncc(C(=O)Nc4c(C)cccc4Cl)s3)nc(C)n2)CC1 [mPEG3-COO-Dasatinib]
IC50 (ABL [1]): 0.29 nM | ABL AVG % Activity at 1.0E−09 (ABL [3]): 2% | ABL AVG % Activity at 1.0E−10 (ABL [3]): 80% | ABL AVG % Activity at 1.0E−11 (ABL [3]): 98% | ABL AVG % Activity at 3.0E−09 (ABL [3]): −1% | ABL AVG % Activity at 3.0E−10 (ABL [3]): 44% | ABL AVG % Activity at 3.0E−11 (ABL [3]): 92%

From patent US20120094998A1, “Oligomer-Protein Tyrosine Kinase Inhibitor Conjugates” (Nektar Therapeutics, priority 2009, published 2012)
